The source of these data is paper PMC12557367, ““Precision on Two Wheels”–Structural Refinement of ^64Cu- and ^68Ga-Labeled Bicyclic Peptides Targeting Nectin‑4 for Improved Tumor Imaging: From Preclinical Development to First-in-Human Application” (Journal of Medicinal Chemistry, 2025).

Each structure is given as a SMILES string. Numbered stars: 1 amine (or outer) side, 2 acyl side, 3 side chain; on linkers, the order of the positions; unused ones are H or OH. Bridge positions count the residues as written; N and C are the ends. Square brackets hold non-standard residues; d marks the D form. Peptide text beside a SMILES is read from it. * marks the point of attachment. DOTA = O=C(O)CN1CCN(CC(=O)O)CCN(CC(=O)*)CCN(CC(=O)O)CC1; TATA = O=C(CC[*:1])N1CN(C(=O)CC[*:2])CN(C(=O)CC[*:3])C1; X1 = O=C(O)CN1CCN(CC(=O)O)CCN([C@H](CCC(=O)*)C(=O)O)CC1; 1Nal = N[C@@H](Cc1cccc2ccccc12)C(=O)O; 2Nal = N[C@@H](Cc1ccc2ccccc2c1)C(=O)O; Hyp = O=C(O)[C@@H]1C[C@@H](O)CN1; hArg = N=C(N)NCCCC[C@H](N)C(=O)O; hSer = N[C@@H](CCO)C(=O)O

In data set [1] the target is T1, recombinant human nectin-4 (Homo sapiens, UniProt Q96NY8).
T1 construct: close to the value determined for the complete extracellular domain of nectin-4 (0.94 nM); purchased R&D Systems 2659-N4
T1 sequence (Q96NY8 32-349 limits assumed): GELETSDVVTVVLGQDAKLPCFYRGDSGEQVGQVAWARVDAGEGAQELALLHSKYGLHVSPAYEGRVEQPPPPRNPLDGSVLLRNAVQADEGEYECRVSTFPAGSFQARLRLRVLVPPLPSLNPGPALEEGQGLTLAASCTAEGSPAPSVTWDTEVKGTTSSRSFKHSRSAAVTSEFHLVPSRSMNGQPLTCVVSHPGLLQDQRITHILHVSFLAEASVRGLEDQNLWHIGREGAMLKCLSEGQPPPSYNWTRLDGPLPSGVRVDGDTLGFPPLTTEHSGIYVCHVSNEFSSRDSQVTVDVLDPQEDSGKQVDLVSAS
Description: Fluorescence anisotropy (FA) direct binding of fluorescent probes. As to conditions: 1 nM probe. The text has this: For characterizing the binding affinity of the bicyclic peptides toward nectin-4, we envisaged a fluorescence anisotropy-based competitive binding assay. Mudd et al. also used such an assay for the development of the bicycle drug conjugate BT8009. Herein, the peptidic scaffold of BT8009 was used as a basis for the required fluorescent nectin-4-ligand (probe) with either 6-TAMRA (1a) or 6-FAM (1b) being attached at the N-terminal Cys residue. […] In this context, the binding of the probe to nectin-4 was started by the addition of nectin-4, followed by continuous fluorescence measurements over 20 min. It is worth noting that a slight initial increase in the FA values could be observed for both probes (FA values at <300 s in Figure S1); however, this putative time-dependent association appeared to be too fast to analyze it. […]
All measurements were conducted at 37 °C over 1200 s (interval of 37 s) using a Cytation 5 multimode microplate reader (BioTek Instruments, Software Gen 5) and black 96-well microplates (BRANDplates with F-bottom wells). […] The FA (r) was calculated by Gen 5 software from the measured parallel and perpendicular fluorescence intensities (I ∥ and I ⊥, respectively) according to eq using a G factor of 0.87 (preset value). r=I∥−G×I⊥/I∥+2G×I⊥ 1 […]
In general terms: Polarisation of emitted light reports the rotation of a fluorescent probe.

Data set [2] has as its target T2, recombinant N-terminal Ig-like V domain of nectin-4 (Homo sapiens, UniProt Q96NY8).
T2 construct: probe 1a to the N-terminal Ig-like V domain of nectin-4 (Acro Biosystems, NE4-H82Ea); purchased Acro Biosystems NE4-H82Ea
T2 sequence (Q96NY8 32-144 limits assumed): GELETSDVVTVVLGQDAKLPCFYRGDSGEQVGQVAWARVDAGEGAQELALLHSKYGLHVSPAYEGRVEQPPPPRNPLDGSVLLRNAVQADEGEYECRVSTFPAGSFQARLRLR
Description: FA direct binding of probe 1a to Ig-like V domain. The source says:
For direct binding of probe 1a to the N-terminal Ig-like V domain of nectin-4 (Acro Biosystems, NE4-H82Ea), the same procedure as described previously was applied.

The target in data set [3] is T1, recombinant human nectin-4. Description: FA-based competitive binding assay with probe 1a. As to conditions: for Hill coefficient n: competitive binding curve, variable slope.
In data set [4] the test system is HT-1376 cells. Description: Saturation binding assay on intact cells. In kind it is cell-based, human. The conditions noted are these: intact HT-1376 cells, ±SD; for Kd: 60 min, PBS wash, apparent. On the procedure: For the saturation binding assay, total and nonspecific binding were determined as described above using 10 different radioligand concentrations ([…]) prepared by serial 1:1 dilution. Plots of “total binding” = f(radioligand) were analyzed by nonlinear regressions using the model of “one site-total, accounting for ligand depletion” as implemented in GraphPad Prism, and Plots of “nonspecific binding” = f(radioligand) were analyzed by linear regressions.

A further data set concerns the target nectin-4. The arrangement: method as in Duan et al. As to conditions: SPR, buffer pH 4.0; ref Duan et al.; read-out: binding affinity; cited from earlier work.
The format of data set [5] is in vitro ADME. The conditions noted are these: 24 h. On the procedure:
Human plasma was collected as previously described. For assessing the stability in human plasma, 10 μL (10 MBq) of the labeling solution of [ ^ 64 Cu]-Cu-1e, [ ^ 64 Cu]-Cu-3a, or [ ^ 64 Cu]-Cu-4 were added to 90 μL of human plasma, and the mixture was incubated at 37 °C for up to 24 h. At distinct time points (1, 2, 4, and 24 h), an aliquot of 20 μL was withdrawn and diluted with 60 μL of a mixture named “Supersol” (composition as described above). This was followed by centrifugation at 16,100g for 2 min. The supernatant was analyzed by radio-HPLC (the same system as used for analyzing the ^64Cu-labelings).

Data set [6] can be described thus: Chromatographic hydrophobicity index at immobilized artificial membrane (CHI IAM7.4) by HPLC. It is filed as physicochemical. The conditions noted are these: nonlabeled peptide, pH 7.4. The method, then:
Consequently, the CHI IAM7.4 values indicate that unfavorable pharmacokinetic behavior due to nonspecific binding is not to be expected.
All commercial reagents and solvents were used without further purification, unless otherwise specified. […] The purity of compound 5, which bears selenomethionine, was lower due to the lability to oxidation (as discussed above). The HPLC-based determination of chromatographic hydrophobicity indices at an immobilized artificial membrane was performed as previously described according to the method developed by Valko et al.

Data set [7] deals with HT-1376 cells. Description: Flow cytometry with fluorescent probe. The conditions noted are these: 1 µM probe, on ice 1 h; 5637 cells as negative. It is filed as cell-based, human. The method, then: For flow cytometry analysis, HT-1376 and 5637 cells were rinsed with PBS three times and dissociated from a flask by using 50 mM EDTA and a cell scraper. Aliquots of the cell suspension containing 1 × 10^6 cells were pelleted at 300×g for 7 min, and one pellet of each cell line was dissolved in fresh PBS + 3% BSA containing 1 μM of probe 1b. As a negative control, one HT-1376 pellet was dissolved only in PBS + 3% BSA. The cells were incubated on ice for 1 h before they were pelleted again. The staining solution was discarded, and the pellet was washed in 1 mL of PBS + 0.5% BSA + 2 mM EDTA (FACS wash buffer) and centrifuged again. The washing step was repeated a total of three times. After the last wash, the pellets were dissolved in 500 μL of FACS wash buffer and analyzed with an Attune NxT Flow Cytometer (Invitrogen). For the detection, the BL1 laser with an excitation of 488 nm and an emission filter of 530/30 nm set to a Voltage of 270 was used. The forward scatter was set to a voltage of 80 or 120, and the sideward scatter was set to 320 or 370 for HT-1376 or 5637 cells, respectively. A sample of 50 μL was analyzed at a speed of 100 μL/min, leading to a total of 35410 and 34992 analyzed events (singlets) for HT-1376 and 5637 cells, respectively.
A general note: In flow cytometry, cells or beads pass a laser one at a time.

For `CSCC[C@@H]1NC(=O)[C@@H]2CSCCC(=O)N3CN(CN(C3)C(=O)CCSC[C@H](NC(=O)c3ccc(C(=O)O)c(-c4c5ccc(=[N+](C)C)cc-5oc5cc(N(C)C)ccc45)c3)C(=O)N3CCC[C@H]3C(=O)N[C@@H](Cc3cccc4ccccc34)C(=O)N[C@H](CC(=O)O)C(=O)N2)C(=O)CCSC[C@@H](C(N)=O)NC(=O)[C@H](Cc2c[nH]c3ccccc23)NC(=O)[C@@H]2C[C@@H](O)CN2C(=O)[C@@H]2CCCN2C(=O)[C@H]([C@@H](C)O)NC(=O)[C@H](CO)NC(=O)[C@H](Cc2c[nH]c3ccccc23)NC(=O)[C@H](CC(=O)O)NC(=O)[C@H](CCCCNC(=N)N)NC1=O` [1a], the “dynamic range (ΔFA = mA of bound probe – mA of free probe)” value in data set [1] is listed as 100 (±3) mA. The Kd in data set [2] came to 1.3 nM.
Regarding `CSCC[C@@H]1NC(=O)[C@@H]2CSCCC(=O)N3CN(CN(C3)C(=O)CCSC[C@H](NC(=O)CN3CCN(CC(=O)O)CCN(CC(=O)O)CCN(CC(=O)O)CC3)C(=O)N3CCC[C@H]3C(=O)N[C@@H](Cc3ccc4ccccc4c3)C(=O)N[C@H](CC(=O)O)C(=O)N2)C(=O)CCSC[C@@H](C(=O)O)NC(=O)[C@H](Cc2c[nH]c3ccccc23)NC(=O)[C@@H]2C[C@@H](O)CN2C(=O)[C@@H]2CCCN2C(=O)[C@H]([C@@H](C)O)NC(=O)[C@H](CO)NC(=O)[C@H](Cc2c[nH]c3ccccc23)NC(=O)[C@H](CC(=O)O)NC(=O)[C@H](CCCNC(=N)N)NC1=O` [8d, reference compound] ({DOTA}-CP[2Nal][dD]CMRDWSTP[Hyp]WC-OH; linker 1-5-15 via TATA), the “factor less potent than DOTA conjugate 1f” value in data set [3] (FA K d ratio) came out at 26 fold. Also, in data set [3], the Hill coefficient n is recorded as 2.53. In the data set on HT-1376 cells [4] (^68Ga-labeled ligand), the Kd was found to be 222 nM and the “B max (fmol/mg)” value is 291 (±77.9) fmol/mg. Further, on nectin-4, the Kd is 23.7 nM.
Take `COCC[C@@H]1NC(=O)[C@@H]2CSCCC(=O)N3CN(CN(C3)C(=O)CCSC[C@H](NC(=O)CC[C@H](C(=O)O)N3CCN(CC(=O)O)CCN(CC(=O)O)CC3)C(=O)N3CCC[C@H]3C(=O)N[C@@H](Cc3cccc4ccccc34)C(=O)N[C@H](CC(=O)O)C(=O)N2)C(=O)CCSC[C@@H](C(N)=O)NC(=O)[C@H](Cc2c[nH]c3ccccc23)NC(=O)[C@@H]2C[C@@H](O)CN2C(=O)[C@@H]2CCCN2C(=O)[C@H]([C@@H](C)O)NC(=O)[C@H](CO)NC(=O)[C@H](Cc2c[nH]c3ccccc23)NC(=O)[C@H](CC(=O)O)NC(=O)[C@H](CCCCNC(=N)N)NC1=O` [compound 4] (X1-CP[1Nal][dD]C[hSer](Me)[hArg]DWSTP[Hyp]WC-NH2; linker 1-5-15 via TATA): in data set [3], the Hill coefficient n came to 1.72. For the same compound, the “chemical and proteolytic stability in human plasma” value in data set [5] was “No signs of degradation”. For the same compound, in data set [6], the “CHI IAM7.4” value is 20.2. Moreover, the figures for the Kd with HT-1376 cells [4] (^64Cu-labeled ligand) and in the data set on HT-1376 cells [4] (^68Ga-labeled ligand) were 6.06 nM and 13.1 nM, respectively.
As to `CSCC[C@@H]1NC(=O)[C@@H]2CSCCC(=O)N3CN(CN(C3)C(=O)CCSC[C@H](NC(=O)c3ccc(C(=O)O)c(-c4c5ccc(=O)cc-5oc5cc(O)ccc45)c3)C(=O)N3CCC[C@H]3C(=O)N[C@@H](Cc3cccc4ccccc34)C(=O)N[C@H](CC(=O)O)C(=O)N2)C(=O)CCSC[C@@H](C(N)=O)NC(=O)[C@H](Cc2c[nH]c3ccccc23)NC(=O)[C@@H]2C[C@@H](O)CN2C(=O)[C@@H]2CCCN2C(=O)[C@H]([C@@H](C)O)NC(=O)[C@H](CO)NC(=O)[C@H](Cc2c[nH]c3ccccc23)NC(=O)[C@H](CC(=O)O)NC(=O)[C@H](CCCCNC(=N)N)NC1=O` [1b], in data set [1], the “dynamic range (ΔFA = mA of bound probe – mA of free probe)” value is on record as 86 (±7) mA. For the same compound, in the data set with HT-1376 cells [7], the “binding of probe to cells (FACS)” value is “Nectin-4-specific binding”.
